This note sets out measurements from patent publication US12187721B2, “Protein tyrosine phosphatase inhibitors” (Array BioPharma Inc., priority 2018, dated 2025).

In this test the target is T1, full-length SHP2 (His6-tagged SHP2(2-527)) (Homo sapiens, UniProt Q06124).
T1 construct: His6-tagged SHP2(2-527); His6; made in house; host or cells: E. coli
As to the kind of experiment: SHP2 Enzymatic Assay (fluorescence intensity kinetic assay, DiFMUP hydrolysis). The class given is biochemical. In outline:
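1 nM His6-SHP2(2-527), activated by 1 μM bis-phosphopeptide, hydrolysed 50 μM DiFMUP in 25 mM HEPES pH 7.4 with 1 mM DTT, 50 mM KCl and 2% DMSO. DiFMU fluorescence (Ex 355/Em 460 nm) was read kinetically for 15 min at ambient temperature.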

Where two headings read alike, the source gives them in different places.

T1 sequence (Q06124 2-527): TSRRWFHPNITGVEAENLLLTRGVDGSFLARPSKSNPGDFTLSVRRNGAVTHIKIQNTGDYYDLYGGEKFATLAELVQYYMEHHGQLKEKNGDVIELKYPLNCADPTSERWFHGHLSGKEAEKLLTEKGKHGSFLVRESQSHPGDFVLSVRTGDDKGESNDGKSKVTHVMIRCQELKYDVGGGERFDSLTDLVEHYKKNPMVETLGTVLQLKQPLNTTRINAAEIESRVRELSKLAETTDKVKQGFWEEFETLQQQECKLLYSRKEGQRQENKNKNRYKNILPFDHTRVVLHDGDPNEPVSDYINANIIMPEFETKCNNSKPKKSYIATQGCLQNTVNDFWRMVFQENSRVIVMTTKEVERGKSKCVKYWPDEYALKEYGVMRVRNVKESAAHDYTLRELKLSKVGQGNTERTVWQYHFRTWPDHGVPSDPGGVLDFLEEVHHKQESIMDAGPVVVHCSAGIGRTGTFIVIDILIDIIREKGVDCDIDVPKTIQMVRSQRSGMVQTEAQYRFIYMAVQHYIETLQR

In turn, `C[C@@H]1OCC2(CCN(c3ccc4nc(Sc5cccc(Cl)c5Cl)cnc4n3)CC2)[C@@H]1N` [Example 5, (3S,4S)-8-(2-((2,3-dichlorophenyl)thio)pyrido[2,3-b]pyrazin-6-yl)-3-methyl-2-oxa-8-azaspiro[4,5]decan-4-amine] returned an IC50 of 4000 nM.

With `C[C@@H]1OCC2(CCN(c3cnc4nc(Sc5ccncc5F)ccc4n3)CC2)[C@@H]1N` [Example 186, (3S,4S)-8-(6-((3-fluoropyridin-4-yl)thio)pyrido[2,3-b]pyrazin-2-yl)-3-methyl-2-oxa-8-azaspiro[4.5]decan-4-amine], the IC50 came to 2310 nM.

Take `C[C@@H]1OCC2(CCN(c3cnc4nc(Sc5ccncc5C(F)(F)F)ccc4n3)CC2)[C@@H]1N` [Example 188, (3S,4S)-3-methyl-8-(6-((3-(trifluoromethyl)pyridin-4-yl)thio)pyrido[2,3-b]pyrazin-2-yl)-2-oxa-8-azaspiro[4.5]decan-4-amine]: the IC50 was 151 nM.

As for `Nc1nccc(Sc2ccc3nc(N4CC5CNCC(C4)O5)cnc3n2)c1Cl` [Example 206, 4-((2-(9-oxa-3,7-diazabicyclo[3.3.1]nonan-3-yl)pyrido[2,3-b]pyrazin-6-yl)thio)-3-chloropyridin-2-amine], half-maximal inhibition (IC50) was put at 2030 nM.

In turn, `Nc1nccc(Sc2ccc3nc(N4CC5(Cc6ccccc6[C@@H]5N)C4)cnc3n2)c1Cl` [Example 164, (S)-1-(6-((2-amino-3-chloropyridin-4-yl)thio)pyrido[2,3-b]pyrazin-2-yl)-1′,3′-dihydrospiro[azetidine-3,2′-inden]-1′-amine] came in with a half-inhibitory concentration (IC50) of 203 nM.

The molecule `C[C@@H]1OCC2(CCN(c3cnc4nc(N5CCNc6ccccc65)ccc4n3)CC2)[C@@H]1N` [Example 70, (3S,4S)-8-(6-(3,4-dihydroquinoxalin-1(2H)-yl)pyrido[2,3-b]pyrazin-2-yl)-3-methyl-2-oxa-8-azaspiro[4.5]decan-4-amine] gave an IC50 of 5970 nM.

`Nc1nccc(Sc2ccc3nc(N4CCC5(CC4)Cc4c(Cl)cccc4[C@@H]5N)cnc3n2)c1Cl` [Example 220, (R)-1′-(6-((2-amino-3-chloropyridin-4-yl)thio)pyrido[2,3-b]pyrazin-2-yl)-4-chloro-1,3-dihydrospiro[indene-2,4′-piperidin]-1-amine] had an IC50 of 96 nM.

`N[C@H]1C[C@@H]2CN(c3cnc4nc(Sc5cccc(Cl)c5Cl)ccc4n3)C[C@H]1O2` [Example 59, (1R,5R,6S)-3-(6-((2,3-dichlorophenyl)thio)pyrido[2,3-b]pyrazin-2-yl)-8-oxa-3-azabicyclo[3.2.1]octan-6-amine] had an IC50 of 405 nM.

As to `C[C@@H]1OCC2(CCN(c3cnc4nc(Sc5ccnc(N)c5F)ccc4n3)CC2)[C@@H]1N` [Example 175, (3S,4S)-8-(6-((2-amino-3-fluoropyridin-4-yl)thio)pyrido[2,3-b]pyrazin-2-yl)-3-methyl-2-oxa-8-azaspiro[4.5]decan-4-amine], the IC50 turned out to be 1230 nM.

Regarding `COc1nccc(-c2ccc3nc(N4CCC5(CC4)CO[C@@H](C)[C@H]5N)cnc3n2)c1Cl` [Example 21, (3S,4S)-8-(6-(3-chloro-2-methoxypyridin-4-yl)pyrido[2,3-b]pyrazin-2-yl)-3-methyl-2-oxa-8-azaspiro[4.5]decan-4-amine], half-maximal inhibition (IC50) required 5700 nM.

For `Nc1nccc(Sc2ccc3nc(N4CC5(Cc6ccccc6[C@H]5N)C4)cnc3n2)c1Cl` [Example 124, (R)-1-(6-((2-amino-3-chloropyridin-4-yl)thio)pyrido[2,3-b]pyrazin-2-yl)-1′,3′-dihydrospiro[azetidine-3,2′-inden]-1′-amine], inhibition was half-maximal at 52 nM (IC50).

In the case of `Cc1nccc(Sc2ccc3nc(N4CCC[C@](C)(N)CC4)cnc3n2)c1Cl` (single isomer, unassigned) [Example 151], the IC50 was 76 nM.

On to `C[C@@H]1OCC2(CCN(c3cnc4nc(Sc5ccncc5Cl)ccc4n3)CC2)[C@@H]1N` [Example 187, (3S,4S)-8-(6-((3-chloropyridin-4-yl)thio)pyrido[2,3-b]pyrazin-2-yl)-3-methyl-2-oxa-8-azaspiro[4.5]decan-4-amine], for which the IC50 stood at 261 nM.

With `CC1(N)CCN(c2cnc3nc(-c4cccc5ccccc45)ccc3n2)CC1` [Example 38, 4-methyl-1-(6-(naphthalen-1-yl)pyrido[2,3-b]pyrazin-2-yl)piperidin-4-amine], the concentration for half-maximal inhibition (IC50) (full-length SHP2 with 1 μM activating peptide, 50 μM DiFMUP, single assay or mean of multiple assays, read-out: Biological Example 1 IC50) was 290 nM.

With `Nc1nccc(Sc2ccc3nc(N4CCC(O)(CO)CC4)cnc3n2)c1Cl` [Example 198, 1-(6-((2-amino-3-chloropyridin-4-yl)thio)pyrido[2,3-b]pyrazin-2-yl)-4-(hydroxymethyl)piperidin-4-ol], the IC50 is 3990 nM.

On to `C[C@@H]1OCC2(CCN(c3cnc4nc(Sc5ccnc(N)c5C(F)(F)F)ccc4n3)CC2)[C@@H]1N` [Example 136, (3S,4S)-8-(6-((2-amino-3-(trifluoromethyl)pyridin-4-yl)thio)pyrido[2,3-b]pyrazin-2-yl)-3-methyl-2-oxa-8-azaspiro[4.5]decan-4-amine], for which the IC50 was determined as 160 nM.

In the case of `Nc1nccc(Sc2ccc3nc(N4[C@@H]5CC[C@H]4[C@@H](N)C5)cnc3n2)c1Cl` [Example 213, (1S,2S,4R)-7-(6-((2-amino-3-chloropyridin-4-yl)thio)pyrido[2,3-b]pyrazin-2-yl)-7-azabicyclo[2.2.1]heptan-2-amine], it took 112 nM to reach half-maximal inhibition (IC50).

Regarding `Nc1nccc(Sc2ccc3nc(N4CCC5(CC4)Oc4ccccc4[C@H]5N)cnc3n2)c1Cl` [Example 132], inhibition was half-maximal at 31 nM (IC50).

For `C[C@@]1(N)CCN(c2cnc3nc(Sc4ccnc(N)c4Cl)ccc3n2)C1` [Example 24, (R)-4-((2-(3-amino-3-methylpyrrolidin-1-yl)pyrido[2,3-b]pyrazin-6-yl)thio)-3-chloropyridin-2-amine], 200 nM corresponded to half-maximal inhibition (IC50).

With `Nc1nccc(Sc2ccc3nc(N4CCC5(CC4)c4ccccc4[C@H]5N)cnc3n2)c1Cl` [Example 165, (S)-1′-(6-((2-amino-3-chloropyridin-4-yl)thio)pyrido[2,3-b]pyrazin-2-yl)spiro[bicyclo[4.2.0]octane-7,4′-piperidine]-1(6),2,4-trien-8-amine], the IC50 came out at 16000 nM.

As to `C[C@@H]1OCC2(CCN(c3cnc4nc(Sc5c(F)cnc6[nH]ccc56)ccc4n3)CC2)[C@@H]1N` [Example 141, (3S,4S)-8-(6-((5-fluoro-1H-pyrrolo[2,3-b]pyridin-4-yl)thio)pyrido[2,3-b]pyrazin-2-yl)-3-methyl-2-oxa-8-azaspiro[4.5]decan-4-amine], the IC50 was determined as 74 nM.

`CC1(N)CCN(c2cnc3nc(-c4cccc(Cl)c4)ccc3n2)CC1` [Example 3, 1-(6-(3-chlorophenyl)pyrido[2,3-b]pyrazin-2-yl)-4-methylpiperidin-4-amine] yielded an IC50 of 1800 nM.

`Nc1nccc(Sc2ccc3nc(N4CCC5(CC4)Cc4cccnc4C5N)cnc3n2)c1Cl` (stereo not drawn) [Example 158, 1′-(6-((2-amino-3-chloropyridin-4-yl)thio)pyrido[2,3-b]pyrazin-2-yl)-5,7-dihydrospiro[cyclopenta[b]pyridine-6,4′-piperidin]-7-amine] yielded an IC50 of 106 nM.

In the case of `C[C@H]1CC[C@H](N)CN1c1cnc2nc(Sc3ccnc(N)c3Cl)ccc2n1` [Example 216, 4-((2-((2S,5S)-5-amino-2-methylpiperidin-1-yl)pyrido[2,3-b]pyrazin-6-yl)thio)-3-chloropyridin-2-amine], the IC50 is 3080 nM.

As a reminder, the IC50 is the point on the concentration scale where inhibition reaches its midpoint.
